≈ marks a conversion by molar mass, not a printed value. Where “and” joins values, the source holds several entries; their conditions need not be identical. Identical values can stand only once. Like-named read-outs stand apart in the source and are kept apart here.
What was measured:
Cryptococcus neoformans = experiment: Anti-fungal activity, MFC (NCCLS M-27A based); type: cell-based; conditions: cidal level
Method: (§1) It was active against Cryptococcus neoformans and Curvularia lunata. The cidal activity for the C. neoformans is high enough that it is clear […] against this yeast. This test was conducted using a method based upon NCCLS reference method M-27A published in 1997. Solvent, medium and growth controls were set-up with the tests. Once these were read to validate the test performance, the QC fungi were read to insure they had expected results. These steps validated the test system. DMSO was used as a drug-chemical solvent. […] The 90% cut-off is necessary for azoles, which are static and not cidal. The […] or cidal level, was determined by sub-culturing a sample from each tube showing no growth.

Curvularia lunata = experiment: Anti-fungal activity, MIC (NCCLS M-27A based); type: cell-based; conditions: growth inhibited or reduced at least 90%
Method: as §1

BVDV = BVDV testing in vitro; type: cell-based, bovine diarrhea virus; conditions: first test
From the text: DMSO had no effect, as expected.
BVDV is a bovine diarrhea virus and is a well known surrogate virus for hepatitis C which cannot be cultured in vitro.

HEPG2 2.2.15 = experiment: Toxicity values in the hepatitis B test; type: cell-based; set-up: Toxicity Values, sample / Toxicity Values, mean: unit not given here
hepatitis B = experiment: In vitro virus production test of hepatitis B, HEPG2 2.2.15; type: cell-based
vero cells = experiment: Herpes simplex testing, toxicity (TC50); set-up: unit not given beside the values
[1] = Toxicity values in the HHV8 test; type: cell-based; conditions: human, TPA-induced BCBL-1 cells; read-out: TC50 (the source's name)
Method: (§2) Toxicity quantification involves the XTT-based evaluation. Assays were designed to characterize the long term effects of the compounds on virus production and to characterize the longer term effects of the compounds on virus production from chronically HIV infected cells.
(§3) The DNA copy number and the toxicity value were measured and compared with Cidofovir. Kaposi's sarcoma (KS) is a cancer that is often found in people with weak immune systems, such as those taking immunosuppressants or those with AIDS. The exact nature of the disease is uncertain, but it is almost always found in association with HHV8.

TPA-induced BCBL-1 cells = experiment: Toxicity values in the HHV8 test; type: cell-based
Method: as §2, §3

[2] = tested on: Human Herpes Virus 8 (HHV8); experiment: Kaposi's sarcoma / HHV8 DNA copy number in TPA-induced BCBL-1 cells; type: cell-based; conditions: HHV8, BCBL-1 cells
Method: as §3

In the case of `CCC(C)n1ncn(-c2ccc(N3CCN(c4ccc(OCC5COC(Cn6cncn6)(c6ccc(Cl)cc6Cl)O5)cc4)CC3)cc2)c1=O` (stereo not shown) [Itra, Itraconazole], the MFC (Cryptococcus neoformans; read-out: MFC) is reported as 32 µg/mL (≈ 45.3 µM).

With `COC(=O)Nc1nc2ccccc2[nH]1` [Methyl, methyl 1,2-benzmimidazole carbamate or benomyl] the MIC (Curvularia lunata) was 0.03 µg/mL (≈ 0.157 µM) and the MFC (Cryptococcus neoformans) was 32 µg/mL (≈ 167 µM).

Work on `c1ccc2[nH]c(-c3cscn3)nc2c1` [Thia, thiabendazole] yielded an MIC (Curvularia lunata; read-out: MIC) of 0.03 µg/mL (≈ 0.149 µM) and an MFC (Cryptococcus neoformans; read-out: MFC) of 32 µg/mL (≈ 159 µM).

For `C[C@@H]1[C@H](O)[C@@H](C)/C=C/C=C/C=C/C=C/C=C/C=C/C=C/[C@H](O[C@@H]2O[C@H](C)[C@@H](O)[C@H](N)[C@@H]2O)C[C@@H]2O[C@](O)(C[C@@H](O)C[C@@H](O)[C@H](O)CC[C@@H](O)C[C@@H](O)CC(=O)O[C@H]1C)C[C@H](O)[C@H]2C(=O)O` [AmB, amphotericin B], the MIC (Curvularia lunata) was 0.06 µg/mL (≈ 0.0649 µM) and the MFC (Cryptococcus neoformans) was 0.5 µg/mL (≈ 0.541 µM).

For `NC(=O)c1ncn([C@@H]2O[C@H](CO)[C@@H](O)[C@H]2O)n1` [Ribavirin, reference compound], the “Antiviral Index (AI), TC50/IC50” value (BVDV) was 2.25.

For `Nc1ccn([C@@H]2CS[C@H](CO)O2)c(=O)n1` [3TC, lamivudine, reference compound], the “% cell control” value (HEPG2 2.2.15; 0.0032 μg/ml) was 90.8%, the “Toxicity Values, mean” value (HEPG2 2.2.15; 0.0032 μg/ml) was 1.137 and the “Toxicity Values, sample” value (HEPG2 2.2.15; 0.0032 μg/ml) was 1.173 and 1.230 and 1.009. The “% cell control” value (HEPG2 2.2.15; 0.01 μg/ml) was 84.6%, the “Toxicity Values, mean” value (HEPG2 2.2.15; 0.01 μg/ml) was 1.060 and the “Toxicity Values, sample” value (HEPG2 2.2.15; 0.01 μg/ml) was 1.081 and 1.099 and 1.001. The “% cell control” value (HEPG2 2.2.15; 0.032 μg/ml) was 94.3%, the “Toxicity Values, mean” value (HEPG2 2.2.15; 0.032 μg/ml) was 1.181 and the “Toxicity Values, sample” value (HEPG2 2.2.15; 0.032 μg/ml) was 1.153 and 1.316 and 1.074. The “Toxicity Values, mean” value (HEPG2 2.2.15; 0.1 μg/ml) was 1.190, the “% cell control” value (HEPG2 2.2.15; 0.32 μg/ml) was 93.6% and the “Toxicity Values, mean” value (HEPG2 2.2.15; 0.32 μg/ml) was 1.172. For the same molecule, the “Toxicity Values, sample” value (HEPG2 2.2.15; 0.32 μg/ml) was 1.207 and 1.227 and 1.082, the “% cell control” value (HEPG2 2.2.15; 1 μg/ml) was 106.5% and the “Toxicity Values, mean” value (HEPG2 2.2.15; 1 μg/ml) was 1.334. The “Toxicity Values, sample” value (HEPG2 2.2.15; 1 μg/ml) was 1.256 and 1.322 and 1.423, the TC50 (HEPG2 2.2.15; HEPG2 2.2.15) was > 1 µg/mL and the TC50 (HEPG2 2.2.15; HEPG2 2.2.15, replicate experiment) was > 1 µg/mL. The “DNA Copy Number (per 3 μl), sample” value (hepatitis B; 0.1 μg/ml) was 73.0 per 3 μl, the “% virus control” value (hepatitis B; 1 μg/ml) was 1.4% and the “DNA Copy Number (per 3 μl), mean” value (hepatitis B; 1 μg/ml) was 4.0 per 3 μl. For the same molecule, the IC50 (hepatitis B; Hepatitis B virus, HepG2 2.2.15) was 0.021 µg/mL (≈ 0.0916 µM) and the IC50 (hepatitis B; hepatitis B, HEPG2 2.2.15) was 0.089 µg/mL (≈ 0.388 µM).

In the case of `Nc1nc2c(ncn2COCCO)c(=O)[nH]1` [Acyclovir, reference compound], the TC50 (vero cells) is reported as > 1.

In the case of `Nc1ccn(C[C@@H](CO)OCP(=O)(O)O)c(=O)n1` [Cidofovir, reference compound], the CC50 [1] is reported as 21.1 µM, the “% cell control” value (TPA-induced BCBL-1 cells; 0.08 μM) is reported as 83.9% and the “% cell control” value (TPA-induced BCBL-1 cells; 0.25 μM) is reported as 90.1%. For the same molecule, the “% cell control” value (TPA-induced BCBL-1 cells; 0.8 μM) was 82.8%, the “% cell control” value (TPA-induced BCBL-1 cells; 2.5 μM) was 75.0% and the “% cell control” value (TPA-induced BCBL-1 cells; 8 μM) was 69.3%. The “% cell control” value (TPA-induced BCBL-1 cells; 25 μM) was 4403% and the TI [2] was “TI = 19.2”.
